Here are results for 13 molecules from ChEMBL document CHEMBL1135289, “Anthranilate sulfonamide hydroxamate TACE inhibitors. Part 2: SAR of the acetylenic P1' group” (Bioorg Med Chem Lett, 2002).

For orientation: inhibition means the drop in the measured response relative to a control, in per cent. Read a high inhibition as strong suppression. Usually IC50 stands for the concentration at which inhibition is half-maximal. Lower therefore signals greater potency in that assay.

In test [1] the test system is THP-1. As to the kind of experiment: Inhibition of LPS-stimulated TNF-alpha production in THP-1 cells at a concentration of 3 uM. Format: functional. The settings on record: Homo sapiens.
The target of test [2] is Disintegrin and metalloproteinase domain-containing protein 17 (Homo sapiens, UniProt P78536). As to the kind of experiment: Inhibition of Tumor necrosis factor alpha converting enzyme.
The target of test [3] is T1, Collagenase 3 (Homo sapiens, UniProt P45452). As to the kind of experiment: Inhibition of Matrix metalloprotease-13.
Test [4] has as its target T2, Matrix metalloproteinase-9 (Homo sapiens, UniProt P14780). As to the kind of experiment: Inhibition of Matrix metalloprotease-9 activity.
Test [5] concerns the target T3, Interstitial collagenase (Homo sapiens) (UniProt P03956).
T3 sequence (whole entry): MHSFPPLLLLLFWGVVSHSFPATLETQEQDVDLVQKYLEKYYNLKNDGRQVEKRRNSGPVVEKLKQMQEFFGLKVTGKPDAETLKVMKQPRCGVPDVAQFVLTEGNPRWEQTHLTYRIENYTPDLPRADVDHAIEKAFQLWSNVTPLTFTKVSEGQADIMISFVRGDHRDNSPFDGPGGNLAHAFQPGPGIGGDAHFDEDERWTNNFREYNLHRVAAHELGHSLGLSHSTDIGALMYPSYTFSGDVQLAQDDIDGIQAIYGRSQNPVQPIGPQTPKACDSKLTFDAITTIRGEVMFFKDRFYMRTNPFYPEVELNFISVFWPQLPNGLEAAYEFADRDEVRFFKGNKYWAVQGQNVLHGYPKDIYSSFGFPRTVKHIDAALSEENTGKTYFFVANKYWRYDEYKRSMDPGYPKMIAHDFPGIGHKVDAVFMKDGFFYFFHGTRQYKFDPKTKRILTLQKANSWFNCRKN
As to the kind of experiment: Inhibition of Matrix metalloprotease-1 at 10 uM.

The target of test [6] is T1, Collagenase 3. As to the kind of experiment: Inhibition of Matrix metalloprotease-13 at 1 uM.
The target of test [7] is T2, Matrix metalloproteinase-9. As to the kind of experiment: Inhibition of Matrix metalloprotease-9 at 1 uM.
Test [8] deals with THP-1. As to the kind of experiment: Compound was evaluated for its ability to inhibit LPS-stimulated TNF-alpha production in THP-1 cells at a concentration of 1 uM. The note with it: Homo sapiens. Format: functional.
The target of another test is T4, Interstitial collagenase (Homo sapiens, UniProt P03956).
T4 sequence (P03956 whole entry): T3 sequence (whole entry)
As to the kind of experiment: Inhibition of Matrix metalloprotease-1.

Test [9] addresses T1, Collagenase 3. As to the kind of experiment: Inhibition of Matrix metalloprotease-13 activity.
For test [10], the system named is THP-1. As to the kind of experiment: Compound was evaluated for its ability to inhibit […] production using THP-1 cellular assay at a concentration of 1 uM. It is filed as functional. The settings on record: Homo sapiens.
The target in test [11] is T2, Matrix metalloproteinase-9. As to the kind of experiment: Inhibition of Matrix metalloprotease-9 at 10 uM.
In test [12] the target is T1, Collagenase 3. As to the kind of experiment: Inhibition of Matrix metalloprotease-13 at 10 uM.

Chain of Disintegrin and metalloproteinase domain-containing protein 17 (P78536 whole entry, the tested form may be a part): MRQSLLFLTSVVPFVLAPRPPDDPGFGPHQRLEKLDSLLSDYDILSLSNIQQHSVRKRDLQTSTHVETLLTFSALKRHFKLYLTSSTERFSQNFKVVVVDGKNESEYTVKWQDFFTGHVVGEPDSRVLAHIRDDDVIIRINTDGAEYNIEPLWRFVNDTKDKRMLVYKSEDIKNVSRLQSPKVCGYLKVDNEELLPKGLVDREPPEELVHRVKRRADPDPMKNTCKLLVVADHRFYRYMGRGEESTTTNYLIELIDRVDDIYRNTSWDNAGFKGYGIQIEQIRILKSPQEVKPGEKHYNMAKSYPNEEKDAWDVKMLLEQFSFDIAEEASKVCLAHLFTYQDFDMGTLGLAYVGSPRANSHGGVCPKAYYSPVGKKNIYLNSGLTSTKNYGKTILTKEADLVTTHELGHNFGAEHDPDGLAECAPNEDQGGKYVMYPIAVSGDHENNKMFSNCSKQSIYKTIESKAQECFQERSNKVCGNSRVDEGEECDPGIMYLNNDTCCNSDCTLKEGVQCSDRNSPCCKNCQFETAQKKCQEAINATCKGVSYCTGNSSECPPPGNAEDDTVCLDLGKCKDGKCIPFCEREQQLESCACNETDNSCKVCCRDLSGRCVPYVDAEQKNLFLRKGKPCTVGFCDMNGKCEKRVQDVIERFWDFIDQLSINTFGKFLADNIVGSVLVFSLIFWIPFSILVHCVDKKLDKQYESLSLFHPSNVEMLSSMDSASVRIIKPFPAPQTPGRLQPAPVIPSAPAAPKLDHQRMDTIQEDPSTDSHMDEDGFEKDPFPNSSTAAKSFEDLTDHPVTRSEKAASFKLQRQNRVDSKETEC
T2 sequence (P14780 whole entry): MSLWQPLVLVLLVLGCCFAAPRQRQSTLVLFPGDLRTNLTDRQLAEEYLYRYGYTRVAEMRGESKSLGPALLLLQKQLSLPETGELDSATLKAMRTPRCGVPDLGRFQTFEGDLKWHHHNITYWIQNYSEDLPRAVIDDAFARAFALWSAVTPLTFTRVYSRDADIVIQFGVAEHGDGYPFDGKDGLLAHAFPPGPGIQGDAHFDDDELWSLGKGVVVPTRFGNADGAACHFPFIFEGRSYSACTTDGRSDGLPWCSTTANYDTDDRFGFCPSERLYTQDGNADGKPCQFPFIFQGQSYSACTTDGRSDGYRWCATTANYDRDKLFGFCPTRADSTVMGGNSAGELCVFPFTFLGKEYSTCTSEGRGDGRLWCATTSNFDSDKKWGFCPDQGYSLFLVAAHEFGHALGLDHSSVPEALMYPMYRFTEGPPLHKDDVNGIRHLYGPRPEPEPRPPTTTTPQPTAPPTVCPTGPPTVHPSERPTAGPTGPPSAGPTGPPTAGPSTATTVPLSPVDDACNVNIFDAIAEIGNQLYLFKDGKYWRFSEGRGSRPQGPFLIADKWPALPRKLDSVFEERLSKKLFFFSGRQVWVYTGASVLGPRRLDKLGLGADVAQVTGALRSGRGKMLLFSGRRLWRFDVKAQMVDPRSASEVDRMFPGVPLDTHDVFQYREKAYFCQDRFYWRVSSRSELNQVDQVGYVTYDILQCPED

Molecule `CC#CCOc1ccc(S(=O)(=O)N(C)c2c(C(=O)NO)cc(Br)cc2C2CCN(C)CC2)cc1` displayed an inhibition at 3 µM in the test on THP-1 [1] of 94%. Also, the IC50 in [2] is 0.025 µM; against Collagenase 3 [3] it was 0.252 µM; in test [4] it was 0.166 µM.
In test [5], `CNCC#CCOc1ccc(S(=O)(=O)N(C)c2c(C)cc(Br)cc2C(=O)NO)cc1` showed an inhibition of 26%.
Regarding `Cc1cc(Br)cc(C(=O)NO)c1N(C)S(=O)(=O)c1ccc(OCc2cccnc2)cc1`, in the test on THP-1 [1], the inhibition at 3 µM is 9%. Besides, the inhibition was 48% on Collagenase 3 [6], 42% in test [5] and 28% in test [7]. For the same molecule, in test [2], it took 0.028 µM to reach half-maximal inhibition (IC50).
In the test with THP-1 [1], `CCCCOc1ccc(S(=O)(=O)N(C)c2c(C)cc(Br)cc2C(=O)NO)cc1` gave an inhibition at 3 µM of 0%. Further, the IC50 in [2] was found to be 0.067 µM.
For `Cc1cc(Br)cc(C(=O)NO)c1N(C)S(=O)(=O)c1ccc(OCC#CCO)cc1`, in the test with THP-1 [8], at 1 µM the inhibition was 69%.
`COc1ccc(S(=O)(=O)N(C)c2c(C(=O)NO)cc(Br)cc2C2CCN(C)CC2)cc1` gave an inhibition at 3 µM with THP-1 [1] of 42%. The IC50 was 0.026 µM in [2], 0.002 µM in test [4], 0.194 µM on Interstitial collagenase and 0.005 µM at Collagenase 3 [9].
Take `CC#CCOc1ccc(S(=O)(=O)N(C)c2c(C)cc(Br)cc2C(=O)NO)cc1`: the inhibition at 1 µM with THP-1 [10] was 59%.
`CC#CCOc1ccc(S(=O)(=O)N(C)c2c(C(=O)NO)cc(-c3ccccc3)cc2C2CCN(C)CC2)cc1` displayed an inhibition at 3 µM with THP-1 [1] of 95%. In addition, the IC50 in test [2] was 0.042 µM; in [4], 0.028 µM; on Interstitial collagenase, 1.92 µM; against Collagenase 3 [9], 0.047 µM.
With `CC#CCOc1ccc(S(=O)(=O)N(C)c2ccccc2C(=O)NO)cc1`, the inhibition at 3 µM with THP-1 [1] was found to be 32%. Further, in [2], half-maximal inhibition (IC50) was put at 0.027 µM. The figures for the inhibition in test [5] and in test [11] were 35% and 61%, respectively.
The molecule `Cc1cc(Br)cc(C(=O)NO)c1N(C)S(=O)(=O)c1ccc(OCC#CCNCCCN(C)C)cc1` had an inhibition in test [5] of 32%.
On to `CC#CCOc1ccc(S(=O)(=O)N(C)c2c(C)cccc2C(=O)NO)cc1`, for which 3 µM produced 55% inhibition in the test with THP-1 [1]. The results for the half-inhibitory concentration (IC50) (in test [2]; against Collagenase 3 [9]) were 0.028 µM and 0.416 µM, respectively. For the same molecule, the inhibition in test [5] stood at 85%.
`CCN(CC)CC#CCOc1ccc(S(=O)(=O)N(C)c2c(C)cc(Br)cc2C(=O)NO)cc1` had an inhibition in test [5] of 21%.
In the test on THP-1 [1], `CC#CCOc1ccc(S(=O)(=O)Nc2c(C)cccc2C(=O)NO)cc1` yielded an inhibition at 3 µM of 7%. In [2], this molecule gave a half-inhibitory concentration (IC50) of 0.084 µM. The inhibition in test [5] was 6%; on Collagenase 3 [12], 42%.
